Measured values: the supplement of paper PMC10307832

Key:
Experiment in all cases: relative viability (nuclei count vs DMSO), 5 days (fraction); higher = more cells survive
[1] = system: 201T
Summary of the method: (§1)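 Each reported value is a median over duplicate plates. It expresses relative viability: treated-well nuclei count divided by vehicle-well nuclei count. Lung cancer cell lines in 1536-well plates were dosed by pin tool a day after seeding, alone with one drug or with a fixed anchor-drug dose plus five library-drug doses (not always all listed) in √10 steps, and nuclei were counted after 5 days.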

[2] = system: BEN
Summary of the method: as §1

[3] = system: EMC-BAC-2
Summary of the method: as §1

[4] = system: HARA
Summary of the method: as §1

[5] = system: HCC-44
Summary of the method: as §1

[6] = system: LCLC-103H
Summary of the method: as §1

[7] = system: LOU-NH91
Summary of the method: as §1

[8] = system: NCI-H1395
Summary of the method: as §1

[9] = system: NCI-H1993
Summary of the method: as §1

[10] = system: NCI-H2023
Summary of the method: as §1

[11] = system: NCI-H2087
Summary of the method: as §1

[12] = system: NCI-H2126
Summary of the method: as §1

[13] = system: NCI-H2347
Summary of the method: as §1

[14] = system: NCI-H23
Summary of the method: as §1

[15] = system: NCI-H3122
Summary of the method: as §1

[16] = system: NCI-H441
Summary of the method: as §1

[17] = system: NCI-H522
Summary of the method: as §1

[18] = system: NCI-H647
Summary of the method: as §1

[19] = system: NCI-H650
Summary of the method: as §1

[20] = system: NCI-H727
Summary of the method: as §1

[21] = system: NCI-H838
Summary of the method: as §1

CC(=O)O[C@@]12CO[C@@H]1C[C@H](O)[C@@]1(C)C(=O)[C@H](O)C3=C(C)[C@@H](OC(=O)[C@H](O)[C@@H](NC(=O)OC(C)(C)C)c4ccccc4)C[C@@](O)([C@@H](OC(=O)c4ccccc4)[C@H]21)C3(C)C [Docetaxel] + CC(=O)c1c(C)c2cnc(Nc3ccc(N4CCNCC4)cn3)nc2n(C2CCCC2)c1=O [Palbociclib] (partner 0.5 µM)
relative viability ([1]; first compound 0.0002 µM): 0.357 | relative viability ([1]; first compound 0.000632 µM): 0.369 | relative viability ([1]; first compound 0.002 µM): 0.367 | relative viability ([1]; first compound 0.006325 µM): 0.388 | relative viability ([1]; first compound 0.02 µM): 0.335 | relative viability ([2]; first compound 0.0002 µM): 0.457 | relative viability ([2]; first compound 0.000632 µM): 0.478 | relative viability ([2]; first compound 0.002 µM): 0.39 | relative viability ([2]; first compound 0.006325 µM): 0.376 | relative viability ([2]; first compound 0.02 µM): 0.343 | relative viability ([3]; first compound 0.0002 µM): 0.511 | relative viability ([3]; first compound 0.000632 µM): 0.536 | relative viability ([3]; first compound 0.002 µM): 0.441 | relative viability ([3]; first compound 0.006325 µM): 0.363 | relative viability ([3]; first compound 0.02 µM): 0.31 | relative viability ([4]; first compound 0.0002 µM): 0.222 | relative viability ([4]; first compound 0.000632 µM): 0.189 | relative viability ([4]; first compound 0.002 µM): 0.168 | relative viability ([4]; first compound 0.006325 µM): 0.128 | relative viability ([4]; first compound 0.02 µM): 0.0982 | relative viability ([5]; first compound 0.0002 µM): 0.904 | relative viability ([5]; first compound 0.000632 µM): 1.01 | relative viability ([5]; first compound 0.002 µM): 0.968 | relative viability ([5]; first compound 0.006325 µM): 0.691 | relative viability ([5]; first compound 0.02 µM): 0.632 | relative viability ([6]; first compound 0.0002 µM): 0.496 | relative viability ([6]; first compound 0.000632 µM): 0.532 | relative viability ([6]; first compound 0.002 µM): 0.5 | relative viability ([6]; first compound 0.006325 µM): 0.598 | relative viability ([6]; first compound 0.02 µM): 0.57 | relative viability ([7]; first compound 0.0002 µM): 0.553 | relative viability ([7]; first compound 0.000632 µM): 0.534 | relative viability ([7]; first compound 0.002 µM): 0.491 | relative viability ([7]; first compound 0.006325 µM): 0.43 | relative viability ([7]; first compound 0.02 µM): 0.324 | relative viability ([8]; first compound 0.0002 µM): 0.589 | relative viability ([8]; first compound 0.000632 µM): 0.638 | relative viability ([8]; first compound 0.002 µM): 0.5 | relative viability ([8]; first compound 0.006325 µM): 0.42 | relative viability ([8]; first compound 0.02 µM): 0.274 | relative viability ([9]; first compound 0.0002 µM): 0.799 | relative viability ([9]; first compound 0.000632 µM): 0.708 | relative viability ([9]; first compound 0.002 µM): 0.686 | relative viability ([9]; first compound 0.006325 µM): 0.538 | relative viability ([9]; first compound 0.02 µM): 0.307 | relative viability ([10]; first compound 0.0002 µM): 0.357 | relative viability ([10]; first compound 0.000632 µM): 0.339 | relative viability ([10]; first compound 0.002 µM): 0.101 | relative viability ([10]; first compound 0.006325 µM): 0.0906 | relative viability ([10]; first compound 0.02 µM): 0.0705 | relative viability ([11]; first compound 0.0002 µM): 0.218 | relative viability ([11]; first compound 0.000632 µM): 0.179 | relative viability ([11]; first compound 0.002 µM): 0.135 | relative viability ([11]; first compound 0.006325 µM): 0.144 | relative viability ([11]; first compound 0.02 µM): 0.102 | relative viability ([12]; first compound 0.0002 µM): 0.378 | relative viability ([12]; first compound 0.000632 µM): 0.356 | relative viability ([12]; first compound 0.002 µM): 0.332 | relative viability ([12]; first compound 0.006325 µM): 0.261 | relative viability ([13]; first compound 0.0002 µM): 0.375 | relative viability ([13]; first compound 0.000632 µM): 0.429 | relative viability ([13]; first compound 0.002 µM): 0.408 | relative viability ([13]; first compound 0.006325 µM): 0.373 | relative viability ([13]; first compound 0.02 µM): 0.343 | relative viability ([14]; first compound 0.0002 µM): 0.562 | relative viability ([14]; first compound 0.000632 µM): 0.523 | relative viability ([14]; first compound 0.002 µM): 0.348 | relative viability ([14]; first compound 0.006325 µM): 0.168 | relative viability ([14]; first compound 0.02 µM): 0.163 | relative viability ([15]; first compound 0.0002 µM): 0.184 | relative viability ([15]; first compound 0.000632 µM): 0.205 | relative viability ([15]; first compound 0.002 µM): 0.174 | relative viability ([15]; first compound 0.006325 µM): 0.187 | relative viability ([15]; first compound 0.02 µM): 0.114 | relative viability ([16]; first compound 0.0002 µM): 0.215 | relative viability ([16]; first compound 0.000632 µM): 0.218 | relative viability ([16]; first compound 0.002 µM): 0.209 | relative viability ([16]; first compound 0.006325 µM): 0.2 | relative viability ([16]; first compound 0.02 µM): 0.132 | relative viability ([17]; first compound 0.0002 µM): 1.11 | relative viability ([17]; first compound 0.000632 µM): 0.795 | relative viability ([17]; first compound 0.002 µM): 0.758 | relative viability ([17]; first compound 0.006325 µM): 0.565 | relative viability ([17]; first compound 0.02 µM): 0.311 | relative viability ([18]; first compound 0.0002 µM): 0.3 | relative viability ([18]; first compound 0.000632 µM): 0.387 | relative viability ([18]; first compound 0.002 µM): 0.11 | relative viability ([18]; first compound 0.006325 µM): 0.0808 | relative viability ([18]; first compound 0.02 µM): 0.062 | relative viability ([19]; first compound 0.0002 µM): 0.34 | relative viability ([19]; first compound 0.000632 µM): 0.305 | relative viability ([19]; first compound 0.002 µM): 0.222 | relative viability ([19]; first compound 0.006325 µM): 0.211 | relative viability ([19]; first compound 0.02 µM): 0.193 | relative viability ([20]; first compound 0.0002 µM): 0.618 | relative viability ([20]; first compound 0.000632 µM): 0.64 | relative viability ([20]; first compound 0.002 µM): 0.629 | relative viability ([20]; first compound 0.006325 µM): 0.538 | relative viability ([20]; first compound 0.02 µM): 0.446 | relative viability ([21]; first compound 0.0002 µM): 0.223 | relative viability ([21]; first compound 0.000632 µM): 0.251 | relative viability ([21]; first compound 0.002 µM): 0.209 | relative viability ([21]; first compound 0.006325 µM): 0.176 | relative viability ([21]; first compound 0.02 µM): 0.133
